# Measured values as given in patent US5061794A, “Cephalosporin derivatives, and antibacterial agents” (priority 1986, dated 1991).
# Counter-ions that a name gives are not always drawn. Like-named read-outs stand apart in the source and are kept apart here.
# Tests used:
# A. calcoaceticus No. 4 = test: in vitro antibacterial activity, agar plate dilution method (MIC); type: cell-based, Acinetobacter calcoaceticus; conditions: Acinetobacter calcoaceticus, NO.4, 16 h, 10^6 CFU/ml
# Outline: (§1)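 Agar plate dilution on Mueller Hinton agar containing graded compound levels, inoculated at 10^6 CFU/ml from overnight Mueller Hinton broth cultures. MIC (μg/ml) read after 16 h at 37°C.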
# Ps. aeruginosa AKR17 = test: as above; type: cell-based, Pseudomonas aeruginosa; conditions: Pseudomonas aeruginosa, read-out: Minimum Inhibitory Concentration (MIC)
# Outline: as §1
# Ps. aeruginosa IF03445 = test: as above; type: cell-based, Pseudomonas aeruginosa; conditions: Pseudomonas aeruginosa, 10^6 CFU/ml
# Outline: as §1
# Ps. aeruginosa AK 109 = test: as above; type: cell-based, Pseudomonas aeruginosa; conditions: Pseudomonas aeruginosa, AK109, 16 h, 10^6 CFU/ml
# Outline: as §1
# E. coli GN5482 = test: as above; type: cell-based; conditions: Escherichia coli
# Outline: as §1
# P. vulgaris No. 33 = test: as above; type: cell-based; conditions: Proteus vulgaris, 10^6 CFU/ml
# Outline: as §1
# K. pneumoniae PCI-602 = test: as above; type: cell-based; conditions: Klebsiella pneumoniae, PCI602, 16 h, 10^6 CFU/ml
# Outline: as §1
# P. vulgaris HX-19 = test: as above; type: cell-based; conditions: Proteus vulgaris, HX19, 16 h, P. vulgaris HX-19; 10^6 CFU/ml; read-out: Minimum Inhibitory Concentration (MIC)
# Outline: as §1
# K. oxytoca GN10650 = test: as above; type: cell-based; conditions: Klebsiella oxytoca, 10^6 CFU/ml
# Outline: as §1
# S. marcescens IAM 1184 = test: as above; type: cell-based; conditions: Serratia marcescens, IAM1184, 16 h, read-out: Minimum Inhibitory Concentration (MIC)
# Outline: as §1
# M. morganii GN5407 = test: as above; type: cell-based; conditions: Morganella morganii, 10^6 CFU/ml
# Outline: as §1
# S. marcescens No. 16-2 = test: as above; type: cell-based; conditions: Serratia marcescens, NO.162, 16 h
# Outline: as §1
# E. coli NIHJ JC2 = test: as above; type: cell-based; conditions: Escherichia coli
# Outline: as §1
# E. cloacae 963 = test: as above; type: cell-based; conditions: 10^6 CFU/ml
# Outline: as §1
# S. aureus 209P NIHJ-JC1 = test: as above; type: cell-based; conditions: Staphylococcus aureus, 16 h
# Outline: as §1
# K. pneumoniae No. 42 = test: as above; type: cell-based; conditions: Klebsiella pneumoniae, 10^6 CFU/ml
# Outline: as §1
# E. cloacae Nek 39 = test: as above; type: cell-based; conditions: Enterobacter cloacae, NEK39, 16 h, 10^6 CFU/ml
# Outline: as §1
# Ps. cepacia 23 = test: as above; type: cell-based, Pseudomonas cepacia; conditions: read-out: Minimum Inhibitory Concentration (MIC)
# Outline: as §1
# E. coli CSH2 (RK1) = test: microbe, parasite or virus in culture; type: cell-based; conditions: Escherichia coli, 16 h, read-out: Minimum Inhibitory Concentration (MIC), *E. coli CSH2 (RK1), lactamase-producing strain; 10^6 CFU/ml
# Outline: as §1
# E. coli CSH(RE45) = test: microbe, parasite or virus in culture; type: cell-based; conditions: Escherichia coli, 16 h, read-out: Minimum Inhibitory Concentration (MIC), *E. coli CSH(RE45), lactamase-producing strain; 10^6 CFU/ml
# Outline: as §1
# [1] = read-out: Minimum Inhibitory Concentration (MIC), A. calcoaceticus No. 4
# [2] = IF03445, 16 h, read-out: Minimum Inhibitory Concentration (MIC), Ps. aeruginosa IF03445
# [3] = read-out: Minimum Inhibitory Concentration (MIC), Ps. aeruginosa AK 109
# [4] = NO.33, 16 h, read-out: Minimum Inhibitory Concentration (MIC), *P. vulgaris No. 33, lactamase-producing strain
# [5] = K. pneumoniae PCI-602, read-out: Minimum Inhibitory Concentration (MIC)
# [6] = GN10650, 16 h, read-out: Minimum Inhibitory Concentration (MIC), *K. oxytoca GN10650, lactamase-producing strain
# [7] = S. marcescens IAM 1184, 10^6 CFU/ml
# [8] = GN5407, 16 h, read-out: Minimum Inhibitory Concentration (MIC), *M. morganii GN5407, lactamase-producing strain
# [9] = read-out: Minimum Inhibitory Concentration (MIC)
# [10] = NIHJJC2, 16 h, read-out: Minimum Inhibitory Concentration (MIC), E. coli NIHJ JC2, 10^6 CFU/ml, 37° C.
# [11] = S. aureus 209P NIHJ-JC1, 10^6 CFU/ml, 37° C., 16 hours, read-out: Minimum Inhibitory Concentration (MIC)
# [12] = NO.42, 16 h, read-out: Minimum Inhibitory Concentration (MIC), *K. pneumoniae No. 42, lactamase-producing strain
# [13] = read-out: Minimum Inhibitory Concentration (MIC), *E. cloacae Nek 39, lactamase-producing strain
# [14] = Burkholderia cepacia, 16 h, Ps. cepacia 23, 10^6 CFU/ml
# [15] = GN5482, 16 h, read-out: Minimum Inhibitory Concentration (MIC), *E. coli GN5482, lactamase-producing strain, 10^6 CFU/ml
# [16] = read-out: Minimum Inhibitory Concentration (MIC), K. pneumoniae PCI-602
# [17] = read-out: Minimum Inhibitory Concentration (MIC), *S. marcescens No. 16-2, lactamase-producing strain, 10^6 CFU/ml
# [18] = Enterobacter cloacae, 16 h, E. cloacae 963, read-out: Minimum Inhibitory Concentration (MIC)
# [19] = A. calcoaceticus No. 4, read-out: Minimum Inhibitory Concentration (MIC)
# [20] = 16 h, Ps. aeruginosa AKR17, 10^6 CFU/ml
# [21] = 16 h, Ps. aeruginosa IF03445, read-out: Minimum Inhibitory Concentration (MIC)
# [22] = Ps. aeruginosa AK 109, read-out: Minimum Inhibitory Concentration (MIC)
# [23] = 16 h, *K. pneumoniae No. 42, lactamase-producing strain, read-out: Minimum Inhibitory Concentration (MIC)
SMILES,MIC (A. calcoaceticus No. 4; [1]),"MIC (Ps. aeruginosa AKR17; AKR17, 16 h)",MIC (Ps. aeruginosa IF03445; [2]),MIC (Ps. aeruginosa AK 109; [3]),MIC (P. vulgaris No. 33; [4]),MIC (K. pneumoniae PCI-602; [5]),MIC (P. vulgaris HX-19),MIC (K. oxytoca GN10650; [6]),MIC (S. marcescens IAM 1184; [7]),MIC (M. morganii GN5407; [8]),MIC (E. coli NIHJ JC2; [10]),MIC (S. aureus 209P NIHJ-JC1; [11]),MIC (K. pneumoniae No. 42; [12]),MIC (E. cloacae Nek 39; [13]),MIC (Ps. cepacia 23; [14]),MIC (E. coli CSH2 (RK1)),MIC (E. coli CSH(RE45)),MIC (E. coli GN5482; [15]),MIC (K. pneumoniae PCI-602; [16]),MIC (E. cloacae 963; [18]),other results
"Nc1nc(C(=NOC2(C(=O)O)CC2)C(=O)NC2C(=O)N3C(C(=O)O)=C(CSc4nc(-c5ccc(O)c(O)c5)c(CC(=O)O)s4)CSC23)cs1 (stereo not drawn) [Example 60 (I), trisodium 7β-[2-(2-aminothiazol-4-yl)-2-(1-carboxylate-1-cyclopropoxyimino)acetamido]-3-[4-(3,4-dihydroxyphenyl)-5-carboxylatemethylthiazol-2-yl]thiomethyl-3-cephem-4-carboxylate]",0.78 µg/mL,3.12 µg/mL,1.56 µg/mL,1.56 µg/mL,0.1 µg/mL,0.025 µg/mL,0.025 µg/mL,0.39 µg/mL,0.2 µg/mL,0.39 µg/mL,1.56 µg/mL,50 µg/mL,0.39 µg/mL,0.39 µg/mL,0.0125 µg/mL,0.05 µg/mL,3.12 µg/mL,,,,"MIC (E. coli GN5482; GN5482, 16 h, read-out: Minimum Inhibitory Concentration (MIC)): 3.12 µg/mL; MIC (S. marcescens No. 16-2; [9]): 3.12 µg/mL; MIC (E. cloacae 963; Enterobacter cloacae, 963, 16 h, read-out: Minimum Inhibitory Concentration (MIC), E. cloacae 963): 0.78 µg/mL"
"CC(=O)Oc1ccc(-c2nc(SCC3=C(C(=O)O)N4C(=O)C(NC(=O)C(=NOC5(C(=O)O)CC5)c5csc(N)n5)C4SC3)sc2CC(=O)O)cc1OC(C)=O (centres unmarked) [Example 60 (II), trisodium 3-[4-(3,4-diacetoxyphenyl)-5-carboxylate-methylthiazol-2-yl]thiomethyl-78-[2-(2-aminothiazol-4-yl)-2-(1-carboxylate-1-cyclopropoxyimino)acetamido]-3-cephem-4-carboxylate]",0.1 µg/mL,3.12 µg/mL,0.78 µg/mL,1.56 µg/mL,0.025 µg/mL,,< 0.006 µg/mL,0.1 µg/mL,0.05 µg/mL,0.1 µg/mL,0.78 µg/mL,25 µg/mL,0.1 µg/mL,0.2 µg/mL,< 0.006 µg/mL,0.0125 µg/mL,3.12 µg/mL,0.78 µg/mL,< 0.006 µg/mL,0.2 µg/mL,MIC (S. marcescens No. 16-2; [17]): 0.78 µg/mL
"CO/N=C(\C(=O)N[C@@H]1C(=O)N2C(C(=O)O)=C(CSc3nnc(-c4ccccc4)o3)CS[C@H]12)c1csc(N)n1 [compound 1, 7β-[2-(2-aminothiazol-4-yl)-2-methoxyiminoacetamido]-3-(5-phenyl-1,3,4-oxadiazol-2-yl)thiomethyl-3-cephem-4-carboxylic acid trifluoroacetate, reference compound]",,,,,,,< 0.006 µg/mL,6.25 µg/mL,1.56 µg/mL,,,,,,,0.39 µg/mL,0.39 µg/mL,,0.0125 µg/mL,1.56 µg/mL,"MIC (A. calcoaceticus No. 4; [19]): 100 µg/mL; MIC (Ps. aeruginosa AKR17; [20]): > 100 µg/mL; MIC (Ps. aeruginosa IF03445; [21]): > 100 µg/mL; MIC (Ps. aeruginosa AK 109; [22]): 50 µg/mL; MIC (E. coli GN5482; 16 h, *E. coli GN5482, lactamase-producing strain, 10^6 CFU/ml, read-out: Minimum Inhibitory Concentration (MIC)): 0.78 µg/mL; MIC (P. vulgaris No. 33; 16 h, *P. vulgaris No. 33, lactamase-producing strain, read-out: Minimum Inhibitory Concentration (MIC)): 0.78 µg/mL; MIC (M. morganii GN5407; 16 h, *M. morganii GN5407, lactamase-producing strain, read-out: Minimum Inhibitory Concentration (MIC)): 0.78 µg/mL; MIC (S. marcescens No. 16-2; [17]): 6.25 µg/mL; MIC (E. coli NIHJ JC2; NIHJJC2, E. coli NIHJ JC2, 10^6 CFU/ml, 37° C., 16 hours, read-out: Minimum Inhibitory Concentration (MIC)): 0.78 µg/mL; MIC (S. aureus 209P NIHJ-JC1; [9]): 0.39 µg/mL; MIC (K. pneumoniae No. 42; [23]): 1.56 µg/mL; MIC (E. cloacae Nek 39; *E. cloacae Nek 39, lactamase-producing strain, read-out: Minimum Inhibitory Concentration (MIC)): 3.12 µg/mL; MIC (Ps. cepacia 23; Burkholderia cepacia, 23, 16 h): 12.5 µg/mL"
"CO/N=C(\C(=O)N[C@@H]1C(=O)N2C(C(=O)O)=C(CSc3nnc(-c4ccc(O)cc4)o3)CS[C@H]12)c1csc(N)n1 [compound 2, reference compound]",,,,,0.78 µg/mL,0.0125 µg/mL,< 0.006 µg/mL,,,0.78 µg/mL,0.78 µg/mL,,,6.25 µg/mL,,0.78 µg/mL,0.39 µg/mL,0.78 µg/mL,,1.56 µg/mL,"MIC (A. calcoaceticus No. 4; [19]): 50 µg/mL; MIC (Ps. aeruginosa AKR17; [20]): > 100 µg/mL; MIC (Ps. aeruginosa IF03445; [21]): 100 µg/mL; MIC (Ps. aeruginosa AK 109; [22]): 50 µg/mL; MIC (K. oxytoca GN10650; 16 h, *K. oxytoca GN10650, lactamase-producing strain, read-out: Minimum Inhibitory Concentration (MIC)): 25 µg/mL; MIC (S. marcescens IAM 1184): 0.78 µg/mL; MIC (S. marcescens No. 16-2; *S. marcescens No. 16-2, lactamase-producing strain, 10^6 CFU/ml, read-out: Minimum Inhibitory Concentration (MIC)): 25 µg/mL; MIC (S. aureus 209P NIHJ-JC1; read-out: Minimum Inhibitory Concentration (MIC), S. aureus 209P NIHJ-JC1, 10^6 CFU/ml, 37° C., 16 hours): 0.78 µg/mL; MIC (K. pneumoniae No. 42; [23]): 1.56 µg/mL; MIC (Ps. cepacia 23; Burkholderia cepacia, 23, 16 h): 12.5 µg/mL"
